Results as given in patent EP0452507A1, “MEDICINE COMPRISING TOCOPHERYL GLYCOSIDE AS ACTIVE INGREDIENT” (NIPPON HYPOX LABORATORIES INCORPORATED, priority 1989, dated 1991).

Experiments:
[1] = tested on: antigen-adjuvant-induced inflammation; assay: antigen-adjuvant-induced inflammation, right hind paw swelling by volumetry; format: in vivo, rats; conditions: for inhibition activity against antigen-adjuvant-induced inflammations / average of the swelling ratios: 10 mg/kg intraperitoneally; for average of the swelling ratios: 0.5 hour after administration of antigen and adjuvant, versus Control group
Experimental: (§1) At first, five groups each consisting of five SD male rats weighing 180 to 220 g (total 25 rats) were prepared, and each rat was measured for a size of the subplantar region of the right hind paw. As an antigen to cause an antigen-adjuvant-induced inflammation, 0.2 mg/rat of egg-white albumin was used. Further, as an immune aid (adjuvant), a mixture consisting of 4 mg/rat of aluminum hydroxide and 0.1 ml/rat of pertussis vaccine was prepared.
One out of the five groups was used as Control group. A physiological saline solution of 10 % Nikkol (trade name, dissolving aid, supplied by Nikko Chemical Co., Ltd.) was administered intraperitoneally to each rat, and 0.5 hour after the administration of the physiological saline solution of 10 % Nikkol, the above antigen and adjuvant were administered intracutaneously into the subplantar region of the right hind paw. Then, 0.5, 1, 2, 4, 6, 12 and 24 hours after the administration of the antigen and adjuvant, the swelling on the subplantar region of the right hind paw of each rat was measured by volumetry. And, the average of swelling ratios of the group in every measurement was determined on the basis of the measurement values of the sizes of subplantar regions of the right hind paws of the rats obtained before the administration of the physiological saline solution of 10 % Nikkol.
One of the remaining four groups was used as Example group @. A physiological saline solution of 10 % Nikkol containing VIE-MAN was administered intraperitoneally into each rat of this group in such a dose that the amount of VIE-MAN was 10 mg/kg, and 0.5 hours after the administration of the physiological saline solution of 10 % Nikkol containing VIE-MAN, the above antigen and adjuvant were administered intracutaneously into the subplantar region of the right hind paw. Thereafter, the swelling on the subplantar region of the right hind paw of each rat was measured in the same manner as that for Control group, and the average of swelling ratios of the group in every measurement was determined.
(§2) The same procedure as that for Example group ⑧ was carried out except that a physiological saline solution of 10 % Nikkol containing hydrocortisone which was an anti-inflammatory preparation (immunosuppressive preparation) in place of the physiological saline solution of 10 % Nikkol containing VIE-MAN was administered intraperitoneally in such a dose that the amount of the hydrocortisone was 10 mg/kg.
as §2, with “diphenhydramine” for “hydrocortisone”, “antihistamine” for “anti-inflammatory”, “preparation” for “preparation (immunosuppressive preparation)”
as §2, with “containing indomethacin” for “containing hydrocortisone”, “was a nonsteroidal” for “was an”, “preparation (antipyretic analgesic antiphlogistic” for “preparation (immunosuppressive”, “the indomethacin” for “the hydrocortisone”
as §1, with “first, four” for “first, five”, “five male” for “five”, “SD” for “SD male”, “(total 20” for “(total 25”, “an antigen- adjuvant-induced” for “an antigen-adjuvant-induced”, “was prepared.” for “was used.”
One out of the four groups was used an Control group, and the procedure for Control group in Example 4 was repeated to determine the average of the swelling ratios as a group unit.

[2] = tested on: delayed-type hypersensitivity; assay: picryl chloride-induced delayed-type hypersensitivity, ear swelling ratio; format: in vivo, mice; conditions: for swelling ratio (ear): versus Control group
Experimental: 76 Male mice (C57BU6Ncrj) weighing 18 to 20 g were used. The abdominal portion of each mouse was shaved such that the shaved portion was about 1 cm^2. Thereafter, 20 µl of an ethanol solution of 7 % picryl chloride was applied to the shaved portions for sensitization.
Eighteen out of the 76 mice were used as Control group. A physiological saline solution containing 10 % Nikkol (Nikkol: trade name, dissolving aid, supplied by Nikko Chemical Co., Ltd.) was administered intraperitoneally to the 18 mice for the consecutive 5 days after the sensitization, and ear thickness of each of these 18 mice was measured on the eighth day after the sensitization. Thereafter, 20 µl of an olive oil solution of 1 % picryl chloride was applied to the ear of each of the mice to cause delayed-type hypersensitivity.
The above pharmaceutical solutions were administered intraperitoneally at the above-described doses for the five consecutive days after the sensitization, and ear thickness of each of these mice was measured on the eighth day after the sensitization. Thereafter, 20 µl of an olive oil solution of 1 % picryl chloride was applied to the ear of each of the mice to cause delayed-type hypersensitivity.
24 Hours after the delayed-type hypersensitivity was induced, the swelling of the ear of each of the mice of Control group and Example groups ①, ②and③ was measured with a dial thickness gauge. On the basis of the values of the ear thickness measured before the application of the olive oil solution of 1 % picryl chloride, the swelling ratio of each of Example groups ①, ② and ③ and Control group was determined.
And, the swelling ratio of the mice was determined.
At first, the abdominal portion of each of forty ICR male mice weighing 20 to 25 g was shaved such that the shaved portion was about 1 cm^2. Thereafter, 20 µl of an ethanol solution of 7 % picryl chloride was applied to the shaved portions for sensitization.

[3] = tested on: stomach (mucosal ulcer in the glandular portion); format: in vivo, rats
Experimental: 15 male SD rats weighing 180 to 220 g were used. These rats were fasted for 24 hours, and separated to three groups each consisting of 5 rats.
Then, one group was used as Control group. A physiological saline solution of 10 % Nikkol was administered intraperitoneally, and the rats were sacrificed with ether 16 hours after the administration. The stomach of each rat was removed, and after 10 ml of physiological saline was injected into the stomachs, the stomachs were fixed by immersing them in a 1 % formalin for 10 minutes. Each stomach was dissected along the greater curvatura, and the length (mm) of mucosal ulcer which occurred in the glandular portion was measured under an anatomical microscope (x 10). The average of the ulcer lengths of the five rats was taken as an ulcer index.
One out of the remaining two groups was used as Example group @. The procedure for Control group was repeated except that a physiological saline solution of 10 % Nikkol containing VIE-MAN in place of the physiological saline solution of 10 % Nikkol was administered intraperitoneally in such a dose that the amount of VIE-MAN was 300 mg/kg, and the ulcer index was determined.
The remaining one group was used as Comparative Example group ⓘ. The procedure for Example group 17 was repeated except that a physiological saline solution of 10 % Nikkol containing indomethacin, which was a nonsteroidal anti-inflammatory preparation (antipyretic analgesic antiphlogistic preparation), in place of the physiological saline solution of 10 % Nikkol was administered intraperitoneally in such a dose that the amount of the indomethacin was 20 mg/kg, and the ulcer index was determined.

[4] = Example 2, Fig. 2, ICR male mice, 100 mg/kg/day intraperitoneally
[5] = Example 2, ICR mice, 100 mg/kg/day intraperitoneally

Compound | inhibition activity against antigen-adjuvant-induced inflammations ([1]; Example 5, Fig. 4, 10 mg/kg) | average of the swelling ratios ([1]; Example 5, Fig. 4) | swelling ratio (ear) [2, 4] | side effects such as a reduction in body weight [2, 5] | side effect on the digestive system ([3]; rat, in vivo) | inhibition activity against antigen-adjuvant-induced inflammations ([1]; Example 4, Fig. 3) | average of the swelling ratios ([1]; Example 4, Fig. 3) | delayed-type hypersensitivity prevented and cured ([2]; Example 1, Fig. 1, 10, 30 and 100 mg/kg/day intraperitoneally) | swelling ratio (ear) ([2]; Example 1, Fig. 1, C57BU6Ncrj mice, 10, 30 and 100 mg/kg/day intraperitoneally for 5 days after sensitization, 24 hours after induction) | preventive and therapeutical effect on delayed-type hypersensitivity (comparison) ([2]; Example 1, Fig. 1, VIE-MAN 10, 30, 100 mg/kg/day versus methotrexate 1 mg/kg/day, intraperitoneally) | side effects such as a reduction in body weight ([2]; Example 1, mice, 10, 30 and 100 mg/kg/day intraperitoneally for 5 days) | mucosal ulcer (ulcer index) ([3]; rat, in vivo, ip, 300 mg/kg) | inhibition activity against antigen-adjuvant-induced inflammation compared with VIE-MAN ([1]; Example 4, Fig. 3, both 10 mg/kg intraperitoneally) | ulcer index ([3]; Example 8, Fig. 7, 20 mg/kg intraperitoneally, fasted rats, 16 hours after administration)
Cc1c(C)c2c(c(C)c1OC1OC(CO)C(O)C(O)C1O)CCC(C)(CCCC(C)CCCC(C)CCCC(C)C)O2 (racemic) [VIE-GLU, dl-α-tocopheryl-,8-D-glucoside] | almost as superior as VIE-MAN | significantly lower than that of the swelling ratios of Control group | significantly lower than that of Control group | not observed | nearly similar results to that of the test on VIE-MAN |  |  |  |  |  |  |  |  | 
Cc1c(C)c2c(c(C)c1OC1OC(CO)C(O)C(O)C1O)CCC(C)(CCCC(C)CCCC(C)CCCC(C)C)O2 (racemic) [VIE-MAN, dl-a-tocopheryl-a-D-mannoside] |  |  | significantly lower than that of Control group | not observed |  | excellent inhibition activity | significantly lower than that of the swelling ratios of Control group | dose-dependently prevented and cured | significantly lower than that of Control group | superior to methotrexate | not observed | no mucosal ulcer was observed |  | 
COc1ccc2c(c1)c(CC(=O)O)c(C)n2C(=O)c1ccc(Cl)cc1 [indomethacin, reference compound] |  |  |  |  |  | significant inhibition activity at and after 2 hours |  |  |  |  |  |  | much lower than that of VIE-MAN | about 30 mm
